# Values of other authors, collected in patent publication US5591891A, “N-[Mercaptoacyl (amino acid or peptide ) ] compounds and S-lipophiIic aliphatic carbonyl derivatives thereof as antihypertensives” (Institut National de la Sante et de la Recherche Medicale …, priority 1994, dated 1997).
# Target: T1, NEP (Rattus norvegicus, UniProt P07861)
# T1 construct: thereby aids in reducing blood pressure in the rat; host or cells: rat, in vivo
# T1 sequence (P07861 1-750): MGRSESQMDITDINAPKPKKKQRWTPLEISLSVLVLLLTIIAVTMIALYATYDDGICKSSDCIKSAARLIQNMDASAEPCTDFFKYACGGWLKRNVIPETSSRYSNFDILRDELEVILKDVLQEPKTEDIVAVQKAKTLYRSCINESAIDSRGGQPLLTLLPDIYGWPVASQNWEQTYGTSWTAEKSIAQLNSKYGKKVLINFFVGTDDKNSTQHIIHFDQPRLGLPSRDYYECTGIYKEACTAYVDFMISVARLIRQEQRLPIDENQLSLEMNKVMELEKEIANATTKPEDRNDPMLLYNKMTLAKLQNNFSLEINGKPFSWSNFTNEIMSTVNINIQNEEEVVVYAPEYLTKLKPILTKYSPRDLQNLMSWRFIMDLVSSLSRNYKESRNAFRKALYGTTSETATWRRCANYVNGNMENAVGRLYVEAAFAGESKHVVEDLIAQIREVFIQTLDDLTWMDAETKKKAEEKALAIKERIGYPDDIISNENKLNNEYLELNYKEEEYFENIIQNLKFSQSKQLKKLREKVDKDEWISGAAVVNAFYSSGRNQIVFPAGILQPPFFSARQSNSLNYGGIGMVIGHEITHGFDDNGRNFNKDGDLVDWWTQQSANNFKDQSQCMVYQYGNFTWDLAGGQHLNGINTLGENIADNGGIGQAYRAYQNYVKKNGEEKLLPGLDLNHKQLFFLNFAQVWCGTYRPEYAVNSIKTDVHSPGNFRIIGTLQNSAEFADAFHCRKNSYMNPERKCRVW
# Conditions: aids in reducing blood pressure; cited from earlier work
smiles,measurement,value
"O=C(O)CNC(=O)C(CS)Cc1ccccc1 (racemic) [Thiorphan, N-(2-mercapto-methyl-3-phenyl-1-oxopropyl)glycine]",half-life of circulating auricular natriuretic peptide,capable of augmenting the half-life of circulating auricular natriuretic peptide
